One test concerns SK-MEL-2 cells. Description: Wound healing assay. To be noted: for scratch coverage in wound healing assay: two days; for wound closure: 2.5 μM, day 3 or 4, p≤0.01. It counts as cell-based, human. The method, then: (§1) For the wound-healing assay, melanoma cells were seeded into 35 mm dishes in 6-well-plates. After the cells had reached 100% confluency, the wound-healing assay was performed with a sterile pipette tip (1-10 μL pipette tip) by making a scratch through the confluent monolayer. Subsequently, the cells were washed with DPBS and fresh medium (EMEM) was added to each well and the desired amount of inhibitor was added in order to achieve the final concentrations of 50 nM, 100 nM, 200 nM, 500 nM and 1 μM against the control. Cells were cultured for 48 h. In 24 hours intervals, pictures of wound closure were taken and the percentage of wound closure was calculated in three randomly chosen fields.
The scratch was even clearer after two days in 1 μM sample compared to 200 nM sample. Also the number of dead cells floating was highest in 1 μM, followed by 200 nM; whereas, floating cells were rarely observed in the control samples.
A wound healing assay was performed to investigate the effect of ACPD and DNDA on malignant melanoma cell migration in vitro. Wound healing assay is commonly used to investigate in vitro migration of cancer cells. For the wound-healing assay, melanoma cells were seeded into 35 mm dishes in 6-well-plates. After the cells had reached 100% confluency, the wound-healing assay was performed with a sterile pipette tip (1-10 μL pipette tip) by making a scratch through the confluent monolayer. Subsequently, the cells were washed with DPBS and fresh medium (EMEM) was added to each well and the desired amount of inhibitor was added. Each well was subsequently incubated with sterile water or desired amount of ICA-1, ACPD, DNDA, or c-Stat to achieve the final concentration of the half maximal inhibitory concentration (IC50) for each inhibitor. Plates were incubated at 37 ° C. and 5% CO2 and photographs of wound closure were taken utilizing a Motic AE31E microscope (40× magnification). The percentage of wound closure was calculated after 3 or 4 days.
In one set of experiments, cells were cultured for 48 h. In 24 hours intervals, pictures of wound closure were taken and the percentage of wound closure was calculated in three randomly chosen fields. […] In each figure, cells treated with ACPD 2.5 μM and DNDA 2.5 μM were compared with their respective controls. The areas of the scratch (wound) were calculated and compared to determine the statistical significance (FIG. 8C).

The subject of a further test is MeWo cells. Description: Wound healing assay. Type of test: cell-based, human. To be noted: 2.5 μM, day 3 or 4, p≤0.01. The method, then:
as §1
A wound healing assay was performed to investigate the effect of ACPD and DNDA on malignant melanoma cell migration in vitro. Wound healing assay is commonly used to investigate in vitro migration of cancer cells. For the wound-healing assay, melanoma cells were seeded into 35 mm dishes in 6-well-plates. […] The percentage of wound closure was calculated after 3 or 4 days.
In one set of experiments, cells were cultured for 48 h. In 24 hours intervals, pictures of wound closure were taken and the percentage of wound closure was calculated in three randomly chosen fields. […] The areas of the scratch (wound) were calculated and compared to determine the statistical significance (FIG. 8C).

Another test has as its target T1, PKM-ζ (Homo sapiens, UniProt Q05513).
T1 construct: proteolytic cleavage of N-regulatory domain and the C-terminal catalytic domain of PKC-ζ
T1 sequence (Q05513 1-409 isoform Q05513-2): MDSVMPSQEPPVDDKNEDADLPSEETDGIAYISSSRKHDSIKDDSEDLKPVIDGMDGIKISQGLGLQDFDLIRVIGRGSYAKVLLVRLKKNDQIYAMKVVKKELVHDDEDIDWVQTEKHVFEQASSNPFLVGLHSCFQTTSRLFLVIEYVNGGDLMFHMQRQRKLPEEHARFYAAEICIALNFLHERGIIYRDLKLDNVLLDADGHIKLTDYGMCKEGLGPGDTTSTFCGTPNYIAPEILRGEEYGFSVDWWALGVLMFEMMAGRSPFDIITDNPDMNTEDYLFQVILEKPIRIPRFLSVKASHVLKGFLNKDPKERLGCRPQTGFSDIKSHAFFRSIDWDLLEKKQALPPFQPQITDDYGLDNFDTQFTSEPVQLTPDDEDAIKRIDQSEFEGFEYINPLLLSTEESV
In words: PKC activity assay (phosphorylation of myelin basic protein). It counts as biochemical. The method, then:
(§2) PKC activity assay was conducted by monitoring the phosphorylation of myelin basic protein (MBP), a known substrate for PKCs. The detailed procedure was performed as described in Ling, D. S. F. et al. (2002) for PKC-ι and PKM-ζ [37].
(§3) PKC activity assay was performed by suspending 0.5 μg of PKC-ζ and PKC-ι separately in 200 μL of PKC kinase buffer to test the ability of PKC-ζ and PKC-ι of phosphorylating and immunoprecipitating HSF-1 of the SK-MEL-2 cells and PCS-200-013 cells. The PKC kinase buffer composition was 20 mM Tris-HCL (pH of 7.5), 6 mM Magnesium acetate, phosphotidylserine ([…], 20 μL of 10 mg/mL solution), ATP (0.0045 mg/mL) and also the desired inhibitors, wherever appropriate (ICA-1, ACPD, DNDA and ζ-Stat). The inhibitor was used in two different concentrations as 1 μM and 0.5 μM. The reaction was terminated after incubation for 5 minutes at 30° C. by addition of sample loading buffer. Samples were then separated by PAGE and immunoblotted against anti-PKC antibodies (either PKC-ι or PKC-ζ) and against phosphospecific HSF-1 antibodies. Samples were also probed against anti-HSF-1 antibody to determine that the protein immunoprecipitaed was HSF-1. The signal was visualized using enhanced chemiluminescence.
(§4) The activity of DNDA (FIG. 2) was determined for a series of concentrations (0-20 μM) using recombinant active PKC-ι or PKM-ζ in the presence of MBP (5 μg). The maximum inhibition of PKC-ζ was 40% and reached at 2 (P≤0.05). Inhibition remained the same upon increasing the concentration PKM-ζ is an active form of PKC-ζ found in human brain due to proteolytic cleavage of N-regulatory domain and the C-terminal catalytic domain of PKC-ζ [27-29].

A further test concerns the target T2, recombinant active PKC-ι (Homo sapiens, UniProt P41743).
T2 sequence (P41743 1-596): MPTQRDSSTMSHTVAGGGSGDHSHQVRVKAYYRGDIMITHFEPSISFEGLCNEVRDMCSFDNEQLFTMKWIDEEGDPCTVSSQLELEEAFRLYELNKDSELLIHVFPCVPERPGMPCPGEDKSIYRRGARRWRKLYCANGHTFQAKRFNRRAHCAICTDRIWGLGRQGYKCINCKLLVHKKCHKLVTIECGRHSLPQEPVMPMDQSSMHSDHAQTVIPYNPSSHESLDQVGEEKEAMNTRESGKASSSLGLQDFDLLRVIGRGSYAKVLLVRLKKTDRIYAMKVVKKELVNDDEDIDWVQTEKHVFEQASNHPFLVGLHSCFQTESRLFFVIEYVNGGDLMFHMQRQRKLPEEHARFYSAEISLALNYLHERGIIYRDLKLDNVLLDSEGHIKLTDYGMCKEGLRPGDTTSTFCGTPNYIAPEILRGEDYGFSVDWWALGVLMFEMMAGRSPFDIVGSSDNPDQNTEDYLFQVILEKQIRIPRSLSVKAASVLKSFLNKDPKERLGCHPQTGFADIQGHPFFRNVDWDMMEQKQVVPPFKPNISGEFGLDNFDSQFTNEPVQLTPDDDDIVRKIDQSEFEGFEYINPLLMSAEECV
The test is described as above. Type of test: biochemical. The method, then:
as §2, §3, §4

Turning to `CC(=O)C1=C(O)CCC1=O` [ACPD, 2-acetyl-1,3-cyclopentanedione], the “scratch coverage in wound healing assay” value with SK-MEL-2 cells (200 nM) and with SK-MEL-2 cells (1 μM) was “not completely covered” in each case. The wound closure result in the test with SK-MEL-2 cells and with MeWo cells was “significantly reduce the wound closure” throughout.

The inhibition is the percentage by which the read-out fell short of the control. For `Nc1c(S(=O)(=O)O)cc2cc(S(=O)(=O)O)ccc2c1N` [DNDA, 3,4-diamino-2,7-naphthalenedisulfonic acid], the “maximum inhibition of PKC-ζ” value at PKM-ζ (reached at 2 (unit not given), series 0-20 μM, MBP 5 μg) was 40%. At recombinant active PKC-ι (reached at 0.5 μM, series 0-20 μM, MBP 5 μg, read-out: maximum inhibition of PKC-ι), the inhibition at 0.5 µM was approximately 15%. Besides, the wound closure result in the test with SK-MEL-2 cells and in the test on MeWo cells was “significantly reduce the wound closure” throughout.

Regarding `O=S(=O)(O)c1cc(O)c2c(S(=O)(=O)O)cc(S(=O)(=O)O)cc2c1` [ζ-Stat, 8-hydroxy-1,3,6-naphthalenetrisulfonic acid], the “inhibition of PKM-ζ activity” value against PKM-ζ (kinase activity assay) was “more than 50%”. In addition, on recombinant active PKC-ι, the “effect on PKC-ι in kinase activity assay” value was “does not effect”.

The values above are taken from patent US11065266B2, “Method of treating melanoma using an inhibitor of an atypical protein kinase C” (UNIVERSITY OF SOUTH FLORIDA, priority 2016, dated 2021).
